According to publication PMC6803969, “Pharmacokinetic Profiling and Simultaneous Determination of Thiopurine Immunosuppressants and Folic Acid by Chromatographic Methods” (Molecules, 2019):

Tests used:
[1] = RP-TLC hydrophobicity assay (RP-18 plates, methanol/phosphate-buffered saline); format: physicochemical; settings: extrapolated to pure phosphate-buffered saline
Method: In reversed-phase chromatography, retention of analytes is governed by hydrophobicity, and this parameter was evaluated using both TLC and HPLC techniques. Due to high affinity of investigated compounds for octadecylsilane chemically bonded to porous silica applied on chromatographic plates, several analyses with mixtures of phosphate-buffered saline with various concentrations of methanol as mobile phase were performed. […] RM values were obtained according to Equation (1):(1) RM=log(1/RF−1), where RF represents the retention factor. Furthermore, chromatographic parameter of hydrophobicity, RMw, was obtained by extrapolation to pure buffer using the linear Equation (2):(2) RM = RMw − SΦ, where S is the slope of the regression line and φ is the concentration (expressed as volume fraction) of methanol.
TLC experiments were performed on commercially available 10 × 10 cm RP-18 TLC plates (Merck, Darmstadt, Germany). Methanol-phosphate-buffered saline mixtures were used as mobile phases. The methanol volume fraction was varied from 20% to 80% in 5% steps. A sufficient amount of mobile phase was placed in a Camag flat-bottom chamber for 10 × 10 cm plates with a stainless-steel lid to have a level of 5 mm. After saturation of chambers with solvent vapor for 30 min, the plates were developed to a distance of 9 cm at room temperature, dried in open air for 5 min and visualized under λ = 254 nm UV light.

[2] = RP-HPLC hydrophobicity assay (Symmetry C18 column, methanol/phosphate-buffered saline); format: physicochemical; settings: extrapolated to pure phosphate-buffered saline, 25 °C
From the text: The obtained retention times, tR, were used to calculate log k values according to Equation (3): (3) logk=logtR−t0/t0, with t0 being the retention time of an unretained solute, sodium nitrate. Furthermore, chromatographic parameter of hydrophobicity, log kw C18, was obtained by extrapolation to pure buffer using the linear Equation (4):(4) logk = logkw − SΦ, where S is the slope of the regression line and φ is the concentration (expressed as volume fraction) of methanol.
Hydrophobicity of the compounds was also studied on a reversed-phase Symmetry C18 column (150 × 4.6 mm, 3.5 µm particle size) obtained by Waters (Milford, MA, USA). Methanol-phosphate-buffered saline mixtures were used as mobile phases. The methanol volume fraction was varied from 10% to 50% in 5% steps. Each mobile phase was shaken vigorously, filtrated through cellulose nitrate filter (0.45 μm, Sartorius, Goettingen, Germany) and degassed by sonication (5 min) before use.

[3] = Phospholipid binding assay (IAM-HPLC, IAM.PC.DD2 column); format: physicochemical; settings: for log kw IAM, chromatographic parameter of lipophilicity obtained by IAM-HPLC: phosphate-buffered saline pH 7.4 without organic modifier, 25 °C
Method: The binding of compounds to the immobilized artificial membrane (IAM) was measured using commercially available immobilized phosphatidylcholine columns (IAM.PC.DD2, 100 x 4.6 mm, […]) obtained by Regis Technologies (Morton Grove, IL, USA). The mobile phase consisted of phosphate-buffered saline that was filtrated through cellulose nitrate filter and degassed (5 min) by sonication before use.

[4] = molecular target: human serum albumin (HSA) (Homo sapiens, UniProt P02768); experiment: Protein binding assay, HSA-HPLC (Chiralpak-HSA column); format: in vitro ADME; settings: phosphate buffer pH 7.0/iso-propanol gradient, 25 °C
human serum albumin (HSA), sequence (P02768 25-609): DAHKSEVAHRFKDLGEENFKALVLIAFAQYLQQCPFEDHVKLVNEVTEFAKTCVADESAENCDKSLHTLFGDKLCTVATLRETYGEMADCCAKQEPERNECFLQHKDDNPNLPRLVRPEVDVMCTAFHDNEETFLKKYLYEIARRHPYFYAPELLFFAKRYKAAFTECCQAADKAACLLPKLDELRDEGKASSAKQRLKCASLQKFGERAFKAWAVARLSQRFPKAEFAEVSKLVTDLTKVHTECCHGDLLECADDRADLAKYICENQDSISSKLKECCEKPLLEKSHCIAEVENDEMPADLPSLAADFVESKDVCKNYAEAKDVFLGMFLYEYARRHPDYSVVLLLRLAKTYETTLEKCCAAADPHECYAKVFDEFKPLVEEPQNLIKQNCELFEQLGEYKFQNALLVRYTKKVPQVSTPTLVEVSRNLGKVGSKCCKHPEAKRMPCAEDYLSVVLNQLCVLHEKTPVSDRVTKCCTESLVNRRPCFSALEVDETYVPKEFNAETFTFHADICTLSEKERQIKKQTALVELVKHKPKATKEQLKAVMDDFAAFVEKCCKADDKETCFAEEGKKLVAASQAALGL
Method: (§1) In this study, the gradient retention times are standardized using a calibration set of compounds with known percentage of plasma protein binding data (PPBlit).
(§2) Validation of the methods was performed by evaluation of retention of warfarin enantiomers. As retention time on HSA and AGP columns is dependent on the injected amount of compound, the smallest possible amount of sample was injected so that the compound would not saturate the specific binding site.
(§3) The interactions of analytes with plasma proteins human serum albumin (HSA) and α1-acid glycoprotein (AGP) have been measured using commercially available chemically bonded HSA (Chiralpak-HSA, 50 × 4.6 mm, 5 μm particle size) and AGP (Chiralpak-AGP, 50 × 4.6 mm, 5 μm particle size) columns obtained by ChromTech (Cedex, France). The mobile phase consisted of 20 mM potassium phosphate buffer with the pH adjusted to 7.0 (A) and iso-propanol (B). The gradient program was as follows: 0–3 min, linear gradient 0–30% B, 3–10 min, isocratic 30% B. The total run time was 15 min to allow re-equilibration of the protein phase with the buffer. Injection volume was set at 10 µL, and the measurements were carried out at 25.0 ± 0.1 °C and at flow rate 1.5 mL/min. The absorbance of the analytes during a chromatographic run was collected at the following wavelengths: 250, 280, 300, 320 and 340 nm.

[5] = Extraction solvent evaluation / solubility; format: physicochemical
Method: Protocols utilizing aqueous or organic solvent extraction solutions (acidic, alkaline or neutral pH) combined with at ambient and elevated temperatures shaking and sonication procedures have all been reported. Therefore, one-variable-at-a-time method was applied to find a ubiquitous method suitable for all investigated analytes. […] Folic acid in solution is known to decompose when exposed to ultraviolet light and/or increased temperature; thus, all experiments were performed at ambient temperature using amber laboratory glassware.

[6] = system: α1-acid glycoprotein (AGP); experiment: Protein binding assay, AGP-HPLC (Chiralpak-AGP column); settings: phosphate buffer pH 7.0/iso-propanol gradient, 25 °C
Method: as §1, §2, §3

[7] = higher levels of NaOH than 0.02 M (0.05 M and 0.1 M)

Row | SMILES | RMw, chromatographic parameter of hydrophobicity obtained by RP-TLC [1] | log kw C18, chromatographic parameter of hydrophobicity obtained by RP-HPLC [2] | difference between log kw C18 and log kw IAM values [3] | log kw IAM, chromatographic parameter of lipophilicity obtained by IAM-HPLC [3] | PPBHSA, percentage of analyte bound to human serum albumin (HSA) obtained by HSA-HPLC [4] | solubility ([5]; in basic aqueous solutions) | extraction efficiency ([5]; in methanol) | solubility ([5]; in organic solvents as well as in water) | extraction efficiency ([5]; in water) | PPBAGP, percentage of analyte bound to α1-acid glycoprotein (AGP) obtained by AGP-HPLC [6] | stability in NaOH extraction solution [7]
1 | Nc1nc2ncc(CNc3ccc(C(=O)N[C@@H](CCC(=O)O)C(=O)O)cc3)nc2c(=O)[nH]1 [Folic acid, folic acid] | 0.57 | 0.99 | 1.25 | −0.26 | 69.40% | soluble in basic aqueous solutions | 4.6% | slightly soluble | 22.4% | 3.45% | –
2 | Cn1cnc([N+](=O)[O-])c1Sc1ncnc2nc[nH]c12 [Azathioprine, azathioprine] | 1.41 | 1.34 | – | 0.68 | 49.22% | – | – | – | – | 75.96% | degradation
3 | Nc1nc2nc[nH]c2c(=S)[nH]1 [6-thioguanine] | 0.21 | 0.32 | – | 0.03 | 24.11% | – | – | – | – | 45.96% | –
4 | Sc1ncnc2nc[nH]c12 [6-mercaptopurine] | 0.23 | 0.45 | – | −0.19 | – | – | – | – | – | 22.15% | –
